Measured values reported in PubChem BioAssay AID2305 (GlaxoSmithKline (GSK), 2010).
Values joined by “and” are separate entries in the source; they are usually repeats but may differ in a detail not shown here. Equal entries are not always repeated.

Test system: P. falciparum 3D7 growth, pLDH absorbance
Test: P. falciparum 3D7 growth inhibition, dose response, strain 3D7 (AID 2305)

SMILES | IC50
O=C(Nc1ccc(Cl)cc1)Nc1ccc(-c2cccc(-c3nc4ccccc4[nH]3)c2)cc1 | 0.16 µM
C(=Cc1ccccc1)C=NNc1ccnc2ccccc12 | 0.73 µM
COc1cc2nc(NCCn3cccn3)nc(NCCc3ccccc3)c2cc1OC | 0.28 µM
N#CCOc1c(C2CCN(CCCCNC(=O)c3ccc(-c4ccc(C(F)(F)F)cc4)cc3)CC2)ccc2c1CCCC2 | 0.76 µM
Cc1cc(N2CCC(NS(=O)(=O)c3cccc4cccnc34)CC2)nc(Nc2cccc(C#N)c2)n1 | 0.75 µM
CCCCN1CCN(c2cc(NS(=O)(=O)c3ccc(C(=O)Nc4ccc(C(F)(F)F)cc4)cc3)ccc2OC)CC1 | 0.66 µM
CC1(CCc2ccccc2)N=C(N)N(Cc2ccccc2)C(=O)C1c1ccc(Cl)c(Cl)c1 (stereo unspecified) | 0.81 µM
Nc1cc(C=Cc2ccc(O)cc2)nc2ccccc12 | 0.99 µM
CS(=O)(=O)Cc1ccc(Nc2ncc(Cl)c(Nc3cccnc3C(N)=O)n2)cc1 | 0.87 µM
CCN(CC)c1ccc(NC(=S)NC2CCN(CCCCCNC(=O)/C=C/c3ccc(Cl)c(Cl)c3)CC2)cc1 | 0.88 µM
Cc1cc(-c2ccc(O)c(CNC3CCCCC3)c2)cnc1N | 0.2 µM
CCc1c[nH]c2c(N3CCCC3=O)cc(C(=O)N[C@@H](Cc3ccccc3)[C@H](O)CNC(C)(C)c3cccc(OC)c3)cc12 | 0.19 µM
CC(NC(=O)c1ccc(O)c(-c2ccc(Cl)c(Cl)c2)c1)C(=O)NC1CCCCC1 (stereo unspecified) | 0.84 µM
O=C(Cn1c(CCc2cccc(F)c2F)nc(=O)c2ccccc21)N(CCN1CCCC1)Cc1ccc(-c2ccc(C(F)(F)F)cc2)cc1 | 0.71 µM
COc1ccc(CNC(=O)c2cc3c(=O)n4ccccc4nc3n(CCc3ccccc3)c2=N)cc1 | 0.33 µM
NC1CCCN(Cc2cccc(-c3ccc(-c4nc5ccc(F)cc5[nH]4)cc3)c2)C1 (stereo unspecified) | 0.57 µM
COc1ccc(-c2cccc(NC(=O)c3cccc(Cl)c3)c2)cc1CN1CCC(O)CC1 | 0.79 µM
O=C(Nc1ccccc1OC(F)(F)F)NC1CCC(CN2CCC(c3c[nH]c4ccccc34)CC2)CC1 (stereo unspecified) | 0.37 µM and 0.8 µM
O=C1C2=C(Nc3ccccc3SC2c2cccs2)c2ccccc21 (stereo unspecified) | 0.23 µM
Cc1ccc(-c2ccc3c(c2)C=C(C(=O)NCC2CCN(CC4CCN(C(=O)/C=C/c5ccc(Cl)c(Cl)c5)CC4)CC2)CCC3)cc1 | 0.78 µM
Nc1ncc(-c2cn[nH]c2)cc1-c1nc2ncc(Cl)cc2[nH]1 | 0.91 µM
O=[N+]([O-])c1ccc(C=NO)nc1 | 0.87 µM
Cc1nc(C(=O)N2CCCC[C@H]2CNC(=O)c2ccc(-c3ccc(N4CCCC4=O)cc3C)cc2)c(-c2ccc(F)cc2)s1 | 0.46 µM
CN(C)c1ccc(-c2ccc(C(=O)NC3CCN(Cc4ccc(F)cc4)CC3)s2)cc1 | 1.05 µM
Oc1ccc2c(c1CNC1CCCCC1)CCCC2 | 0.94 µM
CCCC(=O)Nc1ccc(OCCN(Cc2ccccc2OC(F)(F)F)c2ccc(C(F)(F)F)c(C#N)c2)cc1 | 0.79 µM

SMILES | IC50
COc1cccc2c(NN=Cc3ccc(Cl)cc3)ccnc12 | 0.81 µM
COc1ccc2nc3cc(Cl)ccc3c(Nc3ccc(Sc4ccc(Nc5c6ccc(Cl)cc6nc6ccc(OC)cc56)cc4)cc3)c2c1 | 0.2 µM
COc1ccc2cc(CNCCCCCCNCc3ccc4cc(OC)ccc4c3)ccc2c1 | 0.62 µM
c1cc(CN2CCCCC2)cc(-c2cccc(-c3nc4ccccc4[nH]3)c2)c1 | 0.83 µM
NC1=NC(c2ccccc2)(c2ccccc2)C(=O)N1Cc1ccc(-c2cccnc2)cc1 | 0.7 µM
COc1ccc(C[C@H](C)NC[C@H](O)c2cccc(Cl)c2)cc1F | 0.99 µM
O=C(c1ccc(-c2ccc(-c3nc4ccc(F)cc4[nH]3)cc2)cc1)N1CCCCC1CN1CCC(O)C1 (stereo unspecified) | 0.37 µM
Cc1ccc(C)c(NC(=O)NCCNc2ccnc(Nc3ccc(F)cc3)n2)c1 | 0.82 µM
CCNC(=O)Nc1ccc(-c2cccc(-c3nc4c(C)cccc4[nH]3)c2)cc1 | 0.76 µM
O=C(CC(c1ccccc1)c1ccccc1O)N1CCOCC1 (stereo unspecified) | 1.52 µM
O=C(Nc1cccnc1)c1cc(-c2cc(Cl)ccc2O)n[nH]1 | 0.72 µM
Cc1cc(Nc2cccc(C(F)(F)F)c2)nc(NCc2ccccc2)n1 | 0.15 µM
Cc1cc(C)cc(NC(=S)NCCCCN2CCN(c3cccc(Cl)c3)CC2)c1 | 1.35 µM
COc1ccc(C(=O)NCc2ccc(N)nc2C)cc1Nc1ncc(-c2cccc(N(C)C)c2)cn1 | 0.9 µM
Cn1ccnc1Sc1ncccc1[N+](=O)[O-] | 0.97 µM
CN(C)C1CCN(CC#Cc2cc3ncnc(Nc4ccc(OCc5cccc(F)c5)c(Cl)c4)c3s2)CC1 | 0.89 µM
Nc1ncc(Cc2cc(Cl)c(N)c3ncccc23)c(N)n1 | 1.12 µM
Cc1nn(-c2ccccc2)c2sc(C(=O)N(CCCN(C)C)c3nc(-c4ccccc4)cs3)cc12 | 0.98 µM
COc1ccc(-c2csc3nc(C)nc(Cl)c23)cc1OC | 0.36 µM
COc1ccc(-c2ccc(NC(=O)c3ccc(C#N)cc3)cc2)cc1CN(C)CCO | 0.63 µM
Cc1ccc(NC(=O)c2ccc(CN3CCCN(CC4CCCCC4)CC3)cc2)cc1 | 0.8 µM
Cc1ccc(O)c(Nc2c3c(c(C#N)c4nc5ccccc5n24)CCC3)c1 | 1.25 µM
Cc1cc(N2CCCC2)nc(/N=C(\N)Nc2cccc(C(F)(F)F)c2)n1 | 0.32 µM
CCN(CC)CCCNCc1ccc(-c2ccc(C(F)(F)F)cc2)cc1 | 0.99 µM
CC(C)NC(=O)c1cccc(-c2ccc(OCCN3CCCC3c3cc4ccccc4[nH]3)cc2)c1 (stereo unspecified) | 0.96 µM
O=C(/C=C/c1ccc(F)cc1)NC1CCC(CCN2CCc3ccccc3CC2)CC1 (stereo unspecified) | 1.4 µM

SMILES | IC50
COc1ccc(CN2CCC(CNCCc3ccccc3Cl)CC2)cc1 | 1.11 µM
COc1ccc2nccc([C@@H](O)CN3CCC(NCCOc4ccccc4C(F)(F)F)CC3)c2c1 | 0.75 µM
COc1ccccc1CN1CCC(CNC(=O)c2cc(-c3ccc(N(C)C)cc3)cs2)C1 (stereo unspecified) | 1.27 µM
CC[C@H]1CN2CC[C@H]1C[C@H]2[C@H](O)c1ccnc2ccc(OC)cc12 | 0.15 µM
O=C(NC1CCN(Cc2cccc(C(F)(F)F)c2)CC1)c1ccc(-c2cccc(Cl)c2)s1 | 1.13 µM
COc1cccc(OC)c1OCCCOc1c(C)nc(N)nc1N | 0.46 µM
CCOc1cc(C=NNc2nc(C)cc(-n3nc(C)cc3C)n2)ccc1O | 1.08 µM
CN(C(=O)c1ccc(Br)cc1)c1ccccc1[N+](=O)[O-] | 0.93 µM
Cc1nc(N)nc(N)c1-c1ccc2ccccc2c1 | 0.87 µM
O=C(c1cc(C(=O)Nc2ccc(F)cc2)c(=O)n(-c2ccc(F)cc2)c1)c1cc(Cl)ccc1O | 0.22 µM
OC(CNC1CCCCC1)c1ccc(Cl)c(Cl)c1 (stereo unspecified) | 0.7 µM
CC(CN(C)C)C(=O)Nc1cccc(-c2cccc(-c3nc4ccc(F)cc4[nH]3)c2)c1 (stereo unspecified) | 0.83 µM
Oc1ccccc1CNCC(O)c1cc(C(F)(F)F)cc(C(F)(F)F)c1 (stereo unspecified) | 0.18 µM
NC(N)=NCC=C(c1ccccc1)c1ccccc1 | 0.99 µM
Cc1cc(F)ccc1C1CCN(CCCCNC(=O)c2ccc(NC(=O)c3ccc(Cl)cc3)cc2)CC1 | 0.69 µM
CC(C)c1ccc(NC(=O)NC2CCN(CCCCCN(C)C(=O)/C=C/c3ccc(Cl)c(Cl)c3)C2)cc1 (stereo unspecified) | 0.83 µM
CCC[C@@H]([C@@H](Cc1ccc(C)s1)C(=O)N[C@@H](CNC(C)=O)C(=O)Nc1nccs1)N(O)C=O | 0.18 µM
O=C(/C=C/c1ccc(Cl)c(Cl)c1)NCCCCCN1CCC(NC(=O)Nc2ccc(Cl)c(Cl)c2)CC1 | 0.89 µM
Cc1cc2nc(-c3ccc(/C=C/C(=O)NCCCc4ccccc4)cc3)[nH]c2cc1C | 0.96 µM
COc1ccc2nccc([C@@H](O)CN3CCC(NCC(=O)Nc4cc(F)cc(F)c4)CC3)c2n1 | 0.91 µM
COc1ccc2nccc([C@@H](O)CN3CCC(NCc4cc5cccc(O)c5[nH]4)CC3)c2c1 | 0.84 µM
COc1ccc(N2C(=O)C3C(C2=O)C2(C)c4ccccc4C3(C)c3ccccc32)c([N+](=O)[O-])c1 (stereo unspecified) | 0.72 µM
CN1CCN(c2ccnc3ccc(NC(=O)Nc4ccc5ccccc5c4)cc23)CC1 | 0.08 µM
CN1CCN(c2nc(NCCc3ccc(O)cc3)nc(NCc3ccccc3-c3ccc(C(F)(F)F)cc3)n2)CC1 | 0.97 µM
NC(N)=NCCCN(Cc1ccccc1)c1ccc(Cl)cc1 | 0.56 µM
O=c1cc(NCCCNCc2ccc(Cl)c(Cl)c2)[nH]c2cc(Cl)ccc12 | 0.92 µM

SMILES | IC50
NC1=NC(c2ccccc2)(c2ccccc2)C(=O)N1Cc1ccc(-c2ccncc2)cc1 | 0.77 µM
Cc1ccc(Cn2nc(Cl)c(N3CCNCC3)cc2=O)cc1NC(=O)Nc1ccc(-c2ccccc2)cc1 | 0.68 µM
Cc1noc(C)c1-c1cccc(CNCc2cccc(-c3ccc(-c4nc5ccccc5[nH]4)s3)c2)c1 | 0.2 µM
CC(=O)Nc1cccc(Nc2nccc(Nc3ccc(Oc4ccccc4)cc3)n2)c1 | 0.75 µM
CCOc1ccc(C(C)NC(=O)c2cc(Cl)ccc2OC)cc1OCC (stereo unspecified) | 0.97 µM
O=C(NCc1cccc2ccccc12)C(c1cc2ccccc2o1)N1CCN(C(c2ccccc2)c2ccccc2)CC1 (stereo unspecified) | 0.67 µM
COc1cccc(C(=O)OC2=C3CCC(=O)C3(C)CCC2=O)c1 (stereo unspecified) | 0.08 µM
Cc1ccc(N2C(N)=NC(N)=NC2c2ccccc2)cc1 (stereo unspecified) | 0.06 µM
N#Cc1cncc(-c2nc3c(N4CCC(N5CCCC5)CC4)cccc3n2CCNCc2ccccc2)c1 | 0.87 µM
Cn1c(=O)n(C)c2cc(CNCCNc3ccnc4cc(Cl)ccc34)ccc21 | 0.14 µM
COc1cc(Nc2nccc(N3CCC(NC(=O)Nc4cc(C)ccc4C)C3)n2)cc(OC)c1OC (stereo unspecified) | 1.12 µM
CS(=O)(=O)Cc1ccc(Nc2nccc(N3CCCc4cc(NC(=O)Nc5cccc(C(F)(F)F)c5)ccc43)n2)cc1 | 0.15 µM
COc1ccc(CCNCCCCCNCCc2ccc(Cl)cc2)cc1OC | 0.74 µM
CCOc1cc(O)c(-c2nc(N)ncc2-c2ccc3c(c2)OCCO3)cc1CC | 0.73 µM
CCNc1cc(C(=O)N[C@@H](Cc2ccccc2)[C@H](O)CNCc2cccc(-c3cncnc3)c2)cc(N2CCCC2=O)c1 | 0.66 µM
CCOc1ccc(NC(=O)c2ccc(NCCCN3CC(C)CC(C)C3)c([N+](=O)[O-])c2)cc1 (stereo unspecified) | 0.71 µM
CCc1cc(COc2ccc(CNCCC(C)C)cc2I)c(OCc2ccccc2)c(COc2ccc(CNCCC(C)C)cc2I)c1 | 1.11 µM
O=[N+]([O-])c1ccc(/C=N/Nc2cc(-c3ccccc3)nc3ccccc23)o1 | 0.86 µM
CNC(=S)NCc1cnc2ccccn12 | 0.2 µM
O=C(Nc1ccsc1)Nc1cccc(-c2cccc(-c3nc4ccc(F)cc4[nH]3)c2)c1 | 0.2 µM
COc1cc(NC(=O)/C=C/c2cc(F)cc(F)c2F)cc(OCCN2CCN(CCN3CCOCC3)CC2)c1 | 0.77 µM
COc1cc(C=CC(=O)N2CCC(CN3CCC(c4c[nH]c5ccccc45)CC3)CC2)cc(OC)c1 | 0.8 µM
CCCCCc1cc(O)c2c3c(c(=O)oc2c1)CN(C)CC3 | 0.12 µM
